Assay results as given in patent publication US10729671B2, “Zinc complexes of hydrazones and (thio)semicarbazones and their use for the treatment of cancer” (RUTGERS, THE STATE UNIVERSITY OF NEW JERSEY, priority 2015, dated 2020).

Legend:
[1] = system: TOV112D; assay: Cell-based TOV112D activity (cell growth inhibition assay); design: species or system human
[2] = system: HEK293 cells; assay: Intracellular [Zn2+]free imaging with FluoZin-3-AM in HEK293 cells; assay type: cell-based
Method: (§1) To minimize the potential for Zn^2+ contamination and contributions from poorly defined elements in complete media (e.g. FBS), cells were treated and imaged in Ca^2+ and Mg^2+-free Earle's Balanced Salt Solution supplemented with 10 mM HEPES pH 7.4 (EBSS/H (−)Ca/Mg). Excess ZnCl2 with the Zn^2+ ionophore pyrithione (PYR) was used as a positive control. Excess membrane-permeable Zn^2+ chelator N,N,N′,N′-tetrakis(2-pyridylmethyl)ethane-1,2-diamine (TPEN) was used as a negative control.
To normalize for differential dye loading, cells were then sequentially treated with excess PYR/ZnCl2, imaged, treated with TPEN, and imaged again. PYR/ZnCl2 and TPEN served to saturate and apoize the intracellular FZ3, respectively.
(§2) [formula] where Ji is the initial flux, ΔF/Δt is the slope of the fit line, Fmax is RZ-3 fluorescence in the presence of saturating Zn^2+ and 1% TritonX-100, Fmin is RZ-3 fluorescence in the presence of excess EDTA and 1% TritonX-100, [RZ3] is the concentration of encapsulated RZ-3, and SA/Vol is the surface area to volume ratio calculated assuming hollow spheres of the mean diameter determined by DLS. Intracellular [Zn^2+]free Imaging TOV112D or HEK293 cells (40,000 cells/well) were plated on either 8-well BD Falcon chambered culture slides (Corning Life Sciences) or 8-chambered #1.5 Nunc Lab-Tek II chambered coverglasses (Thermo Scientific) treated with poly-L-lysine. After 48 h, cells were washed 2×5 m in serum-free media and incubated with 1 μM FZ3-AM for 40 m at 37° C. Cells were then washed 2×5 m in either EBSS/H (−)Ca/Mg or phenol-red free DMEM+10% FBS containing the indicated treatments for 20 m before imaging. For nuclear colocalization, 1 μg/mL Hoechst 33342 was also included. Cells were imaged using a Zeiss LSM510 META NLO confocal microscope equipped with 37° C. environmental control chamber. FZ3 and Hoechst 33342 were excited at 488 nm (argon laser) and 790 nm (Chameleon Ti:sapphire laser), respectively. To determine the kinetics of fluorescence change, each background-subtracted image in the time-lapse series was integrated in ImageJ and normalized to the integrated fluorescence of the first frame after treatment. For quantification of intracellular [Zn^2+]free, each cell was analyzed in the treated, 50 μM PYR/ZnCl2 (1:1), and 100 μM TPEN images by taking the mean fluorescence of an ROI inside the cell subtracted by an ROI immediately outside the cell measured in ImageJ. The [Zn^2+]free for each cell was then calculated by Eqn 2:
[formula] […] To minimize the effects of outliers the lowest and highest 5% of cells in each series were rejected, and the remaining values averaged to give the value from that experiment. The number of cells analyzed in each trial ranged from 54-163. […]

[3] = system: TOV112D cells; assay: Intracellular [Zn2+]free imaging with FluoZin-3-AM in TOV112D cells; assay type: cell-based; details: ZMC1 alone (no ZnCl2), EBSS/H (−)Ca/Mg
Method: as §1
To normalize for differential dye loading, cells were then sequentially treated with excess PYR/ZnCl2, imaged, treated with TPEN, and imaged again. […]
[formula] where Ji is the initial flux, ΔF/Δt is the slope of the fit line, Fmax is RZ-3 fluorescence in the presence of saturating Zn^2+ and 1% TritonX-100, Fmin is RZ-3 fluorescence in the presence of excess EDTA and 1% TritonX-100, [RZ3] is the concentration of encapsulated RZ-3, and SA/Vol is the surface area to volume ratio calculated assuming hollow spheres of the mean diameter determined by DLS. […] To determine the kinetics of fluorescence change, each background-subtracted image in the time-lapse series was integrated in ImageJ and normalized to the integrated fluorescence of the first frame after treatment. […] The [Zn^2+]free for each cell was then calculated by Eqn 2:
[formula] […] The number of cells analyzed in each trial ranged from 54-163. […]

[4] = Liposome import assay (RZ-3 fluorescence); details: for Zn2+ transport into liposomes: external [Zn2+]free 10 μM
Method: DOPC-liposomes were prepared by film rehydration and extrusion followed by gel filtration and diluted to an OD600=0.06 in buffer. The size distribution of the liposomes was determined by dynamic light scattering (DLS) using a Malvern Zetasizer Nano ZS. Fluorescence measurements were taken on a Horiba Fluoromax-4 spectrofluorimeter in a 5×5 mm quartz cuvette with λex/λem=550/572 nm for RZ-3 and 490/515 nm for calcein. Initial Zn^2+ import/export was quantified by fitting the first 10-30 s of data after each treatment to a line and converted to units of flux using the following Eqn 1:
as §2, with “For nuclear colocalization, 1 μg/mL Hoechst 33342 was also included. Cells were imaged using a Zeiss LSM510 META NLO confocal microscope equipped with 37° C. environmental control chamber. FZ3 and Hoechst 33342 were excited at 488 nm (argon laser) and 790 nm (Chameleon Ti:sapphire laser), respectively.” left out, “2: […]” for “2:”

[5] = Zn2+ binding affinity
Method: It can function as an ionophore in conditions of the liposome experiments where external [Zn^2+]free was 10 μM. However, in complete media containing 10% fetal bovine serum (FBS), Zn^2+-binding proteins from the serum (e.g. albumin) necessarily compete for Zn^2+ with any putative MC, making the effective [Zn^2+]free much lower than [Zn^2+]total.
FZ3-AM, RZ-3 (K^+ salt), and cell culture media were purchased from Life Technologies. DOPC was purchased from Avanti Polar Lipids. ZMC1 and A6 were similarly obtained. […] HEK293 and TOV112D cells were purchased from ATCC and maintained in DMEM+GlutaMAX with 10% FBS and 1 mg/mL penicillin-streptomycin under a 5% CO2 atmosphere at 37° C. All non-cell based experiments were conducted in 50 mM Tris pH 7.2, 0.1 M NaCl at 25° C.

[6] = HEK293 (non-cancer, p53-WT), FZ3-AM, complete media, confocal microscopy

Row | SMILES | Activity TOV112D [1] | other results
1 | C/C(=N\Nc1nc2ccc(F)cc2s1)c1ccccn1 [Compound 15, (E)-6-fluoro-2-(2-(1-(pyridin-2-yl)ethylidene)hydrazinyl)benzo[d]thiazole] | +++ | 
2 | C/C(=N\NC(=S)N1CCC1)c1ccccn1 [ZMC1] |  | increase of intracellular [Zn2+]free [2, 6]: increased; increase of intracellular [Zn2+]free ([2]; HEK293, ZMC1 alone (no ZnCl2), EBSS/H (−)Ca/Mg): neither cell type showed an increase; increase of intracellular [Zn2+]free [3]: neither cell type showed an increase; RZ-3 fluorescence after reversal of the [Zn2+]free gradient (Zn2+ export) ([4]; large excess of EDTA outside of the liposomes, then ZMC1 added): time dependent decrease
3 | C/C(=N\Nc1nc2ccccc2s1)c1ncc[nH]1 [Compound 13, (E)-2-(2-(1-(1H-imidazol-2-yl)ethylidene)hydrazinyl)benzo[d]thiazole] | + | 
4 | C/C(=N\Nc1nc2ccccc2s1)c1ccccn1 [Compound 3, (E)-2-(2-(1-(pyridin-2-yl)ethylidene)hydrazinyl)benzo[d]thiazole] | +++ | 
5 | C/C(=N\NC(=S)N1CCC1)c1cc(N(C)C)ccn1 [Compound 2, (E)-N′-(1-(4-(dimethylamino)pyridin-2-yl)ethylidene)azetidine-1-carbothiohydrazide] | +++ | 
6 | C/C(=N\NC(=S)N1CCC1)c1cnccn1 [Compound 1, (E)-N′-(1-(Pyrazin-2-yl)ethylidene)azetidine-1-carbothiohydrazide] | ++ | 
7 | CC(C)/C(=N\Nc1nc2ccccc2s1)c1ccccn1 [Compound 12, (E)-2-(2-(2-methyl-1-(pyridin-2-yl)propylidene)hydrazinyl)benzo[d]thiazole] | + | 
8 | C/C(=N\NC(=O)N1CCC1)c1ccccn1 [Compound A6] |  | increase of intracellular [Zn2+]free [2, 6]: did not; Zn2+ transport into liposomes [4]: shuttled Zn^2+ into the liposomes; Kd [5]: 1100 nM
9 | O=C(O)CN(CC(=O)O)CC(=O)O [NTA] |  | increase of intracellular [Zn2+]free [2, 6]: did not; Zn2+ transport into liposomes [4]: did not
10 | CC/C(=N\Nc1nc2ccccc2s1)c1ccccn1 [Compound 11, (E)-2-(2-(1-(pyridin-2-yl)propylidene)hydrazinyl)benzo[d]thiazole] | +++ | 
11 | C/C(=N\Nc1nc2cc(F)ccc2s1)c1ccccn1 [Compound 14, (E)-5-fluoro-2-(2-(1-(pyridin-2-yl)ethylidene)hydrazinyl)benzo[d]thiazole] | +++ | 
12 | C/C(=N\Nc1nc2ccccc2[nH]1)c1ccccn1 [Compound 9, (E)-2-(2-(1-(pyridin-2-yl)ethylidene)hydrazinyl)-1H-benzo[d]imidazole] | +++ | 
13 | C/C(=N\Nc1nc2ccccc2o1)c1ccccn1 [Compound 4, (E)-2-(2-(1-(pyridin-2-yl)ethylidene)hydrazinyl)benzo[d]oxazole] | +++ | 
14 | C/C(=N\Nc1nc2ccccc2n1C)c1ccccn1 [Compound 10, (E)-1-methyl-2-(2-(1-(pyridin-2-yl)ethylidene)hydrazinyl)-1H-benzo[d]imidazole] | +++ | 
